{"source": "paper PMC10606834", "about": "“Is the Neuropeptide PEN a Ligand of GPR83?” (International Journal of Molecular Sciences, 2023)", "format_in_all_cases": "cell-based, human", "key": {"[1]": {"tested_on": "ERK1/2 phosphorylation in HEK293 cells overexpressing GPR83 or GPR83del", "assay": "ERK1/2 phosphorylation (immunoblot), GPR83 cells", "excerpt": "(§1) Apart from G protein-mediated second messenger signaling via Ca^2+ and cAMP, GPCR stimulation may also lead to activation of β-arrestin and phosphorylation of extracellular signal-regulated kinases 1/2 (ERK1/2). Immunoblot analysis was employed to investigate ligand-dependent phosphorylation of ERK1/2 in HEK293 cells overexpressing GPR83 or the deletion variant GPR83del as well as in wild-type HEK293 cells.\n(§2) Figure 4 Ligand-dependent phosphorylation of ERK1/2 and β-arrestin (TANGO) assay. (A) Immunoblot detection of phosphorylated (upper blot) and total (lower blot) ERK1/2 in lysates of HEK293 wild-type cells and in HEK293 cells overexpressing GPR83 or GPR83del. (B) Quantification (mean ± SD of n = 2 independent experiments) of chemiluminescent readout of the immunoblots shown in (A). (C) TANGO assay for ligand-induced β-arrestin activity in HTLA cells overexpressing GPR83 (relative light units, RLU). (D) TANGO assay for ligand-induced β-arrestin activity in HTLA cells overexpressing bradykinin receptor BDKBR2.\n(§3) 4.7. ERK1/2 Phosphorylation Assay\nEffects of GPCR ligands on MAPK signaling were assessed with Western blot analysis of lysates from stimulated cells. The ERK1/2 activation assay was performed as described before. Briefly, 50,000 cells per well were seeded onto adherent 6-well plates and cultured until cells were 80% confluent. After incubation with ligands (10 µM PEN #1 and 100 ng/mL EGF or 200 nM PMA in 0.1% FCS/DMEM) for 15 min, cells were lysed using 200 µL/well cell lysis buffer (100 mM Tris-HCl pH 8.8, 1% SDS) and protease inhibitors (cOmplete, Roche, Basel, Switzerland) on ice for one hour. Immunolabeling was realized using the rabbit monoclonal primary antibody anti-phospho-ERK1/2 Thr^202/Tyr^204 (#4370, Cell Signaling Technologies, Danvers, MA, USA, 1:2000), or anti-total ERK1/2 (#05-1152; Millipore, Burlington, VT, USA; 1:2000), respectively. Blots were analyzed using densitometric quantification using Image Lab Software v4.1 (Bio-Rad)."}, "[2]": {"tested_on": "ERK1/2 phosphorylation in wild-type HEK293 cells", "assay": "ERK1/2 phosphorylation (immunoblot), wild-type cells", "conditions": "10 µM PEN #1, 15 min, n = 2", "excerpt": "as §1, §2, §3\nEffects of GPCR ligands on MAPK signaling were assessed with Western blot analysis of lysates from stimulated cells. The ERK1/2 activation assay was performed as described before. […] Blots were analyzed using densitometric quantification using Image Lab Software v4.1 (Bio-Rad)."}, "[3]": {"tested_on": "GPR83 (HTLA cells)", "assay": "TANGO β-arrestin assay, GPR83", "conditions": "ligand library containing PEN (library plates 10 µM); HTLA cells expressing GPR83; PRESTO-Tango, RLU", "experimental": "The TANGO assay reports GPCR-related activation of β-arrestin using a luminescent readout.\nFor the determination of β-arrestin recruitment after GPCR activation, the PRESTO-Tango system was utilized. On day one, HTLA cells (HEK293 cell line stably expressing a tTA-dependent luciferase reporter and a β-arrestin2-TEV fusion gene, maintained in RPMI supplemented with 10% FBS, 2 μg/mL puromycin, and 100 μg/mL hygromycin) were seeded into 150 mm cell culture plates at 1 × 10^7 cells per well in 30 mL of medium. The next day, transfections were performed directly in the 150 mm plates using jetPEI (Polyplus, Illkirch, France). Plasmid DNA of interest was prepared for transfection following the jetPEI protocol and with a DNA/jetPEI ratio of 1:1. A GFP-encoding plasmid was added as a transfection control (GFP plasmid added as 10% of total DNA to the total NaCl used for plasmid DNA dilution). On day 3, transfected cells were transferred at 15,000 cells per well in 30 μL of medium into 384-well black well, clear bottom plates. On day 4, ligand library multiwall plates (10 µM) were thawed, and 23 μL was added to each well. On day 5, 50 μL per well of BrightGlo luminescence reagent (diluted 10-fold with HBSS buffer) was carefully added, and plates were incubated for 10 min before luminescence reading in the EnVision 2103 Multilabel Reader (Perkin Elmer)."}}, "note": "“Also recorded” adds a separate entry of the source."}
{"sequence": "AADHDVGSELPPEGVLGALLRV [PEN, batch #1 synthesized, batch #2 purchased from Phoenix Pharmaceuticals]", "values": [{"measurement": "phosphorylation of ERK1/2", "setting": "[1]; 10 µM PEN #1, 100 ng/mL EGF or 200 nM PMA, 15 min, HEK293 overexpressing GPR83 or GPR83del as well as wild-type HEK293, n = 2 independent experiments", "result": "substantially induced phosphorylation of ERK1/2"}, {"measurement": "phosphorylation of ERK1/2, GPR83 or GPR83del cells versus wild-type", "setting": "[1]; 10 µM PEN #1, 15 min, n = 2", "result": "equally strong ERK1/2 phosphorylation in wild-type HEK293 cells as well as in HEK293 cells overexpressing GPR83 or GPR83del"}, {"measurement": "phosphorylation of ERK1/2, wild-type HEK293 versus GPR83 or GPR83del cells", "setting": "[2]", "result": "equally strong ERK1/2 phosphorylation in wild-type HEK293 cells as well as in HEK293 cells overexpressing GPR83 or GPR83del; also recorded: also demonstrated a similar phosphorylation after incubation with PEN"}, {"measurement": "β-arrestin activation (luminescence)", "setting": "[3]", "result": "no reactivity was detected; also recorded: failed to generate a signal"}]}
